According to patent US12599141B2, “Rod-shaped plant viral nanoparticles or virus-like particles for agricultural applications” (priority 2016, dated 2026):

Tests used:
[1] = Soil mobility (leaching through 4 cm top soil column); format: physicochemical
Description: The following soil mobility test was designed to establish the leaching of CVTMGMV and free CV in a soil column. […] One mL aliquots of CVTMGMV or free CV (the concentration was 100 mM normalized to the drug concentration) were applied atop of the soil columns, followed by 50 elution fractions of 300 μL DI water. Each collected elution fraction was centrifuged for 10 min at 12,000 rpm to precipitate remaining soil particles. The supernatant was subsequently analyzed by UV-vis spectroscopy (see above).
A soil mobility test was designed to establish the leaching of CVTMGMV and free CV in soil. Briefly, top soil was packed in a plastic column up to a height of 4 cm and saturated with deionized (DI) water. CVTMGMV or free CV was applied atop the soil columns, followed by DI water. Fractions were collected from the soil column, purified, and analyzed by UV-vis spectroscopy for the presence of TMGMV and CV. The λ260 (RNA) and λ280 (CP) wavelengths were monitored to quantify the amount of TMGMV that leached through the soil.

[2] = ref: PubChem CID 11057; cited from earlier work
[3] = CV release profile from CVTMGMV, dialysis-based assay; format: physicochemical; details: 10 mM KP buffer
Description: The release of CV from TMGMV was evaluated using a dialysis-based assay.
Next, we evaluated the release profile of CV from the TMGMV nanocarrier. […] We tested the release profile at room temperature and 4° C. to evaluate two extreme upper soil thermal conditions. Sodium acetate (pH 5.2) and PBS (pH 7.4) buffer solutions were chosen to mimic the acidic and neutral soil environments, respectively. Diffusion of CV from CVTMGMV was also evaluated in KP (pH 7.8) buffer, which was used during loading and storing conditions of the sample. Free CV, in a concentration matched to the concentration and number loaded into TMGMV, was also dialyzed in KP buffer (pH 7.8) at 4° C. as a positive control.

[4] = system: C. elegans; experiment: C. elegans motility assay in liquid culture; format: in vivo, Caenorhabditis elegans
Description: OP50-1 E. coli and C. elegans strain N2 were provided by the Caenorhabditis Genetics Center (CGC) from the University of Minnesota, which is funded by NIH office of Research Infrastructure Programs P40 OD010440. Nematodes were cultured using 100 mm×15 mm sterile polystyrene Petri dishes (FB0875712, Fisher). […] Nematodes were then cultured on the OP50-1 E. coli plates at 22° C. […] OP50-1 E. coli pellet stocks were resuspended in S basal and added to the liquid culture to provide a food source to the nematodes.
Bioavailability of CVTMGMV and free CV to C. elegans was investigated in liquid culture (see above). 50 Nematodes were added to each well of a 24-well culture plate to a final volume of 1 mL. […] The percent of affected nematodes (sum of the nematodes on scale (2) and (3)) as a function of time and the effective concentration (EC50) were determined comparing free CV, TMGMV, and CVTMGMV.
Bioavailability of CVTMGMV and free CV in Caenorhabditis elegans (C. elegans) was investigated in liquid culture. C. elegans nematode motility was classified as either (1) totally immobilized, (2) impaired motility, or (3) […] nematodes. To illustrate the data that were collected, a series of snap shots of C. elegans incubated with no treatment, 10 μM of CV, and 10 μM of CVTMGMV were taken every second for 60 s. […] Five nematodes were selected in each treatment regime and pseudocolored to illustrate their motility.
At specific time points, nematodes were observed under a white light microscope, and the percent of affected nematodes (sum of the nematodes on scale (2) and (3)) was quantified as a function of time. The effective concentration (EC50), defined as the concentration of CV at which half of the maximum immobilization of C. elegans was reached, was determined for free CV and CVTMGMV (FIGS. 5D-G).

CN(C)c1ccc(C(=C2C=CC(=[N+](C)C)C=C2)c2ccc(N(C)C)cc2)cc1 [CV, hexamethyl parparosaniline chloride]
eluted concentration of CV, times lower than CVTMGMV [1]: 3.6 times | Koc [2]: 6.1×10^5 | time to 50% of CV released/dialyzed ([3]; pH 7.8, 4° C. (storing conditions)): ≤ 1.6 h | time to complete release of CV ([3]; pH 7.8, 4° C., dialysis over 72 h): < 18 h | incubation time to maximum efficacy ([4]; 1 μM): 6 h | nematodes paralyzed/dead ([4]; 1 μM, within the first hour): about 15% | incubation time to maximum efficacy ([4]; 10 μM): 6 h | motility by time lapse imaging ([4]; 10 μM, after 3 h of incubation): severe motility impairment | nematodes paralyzed/dead ([4]; 10 μM, within the first hour): about 30% | nematodes paralyzed/dead ([4]; 100 μM, within 1 h, 22° C.): Sixty | Emax at 1 µM ([4]; Caenorhabditis elegans, 6 h, read-out: maximum efficacy (nematodes affected)): ~25% | EC50 ([4]; Caenorhabditis elegans, 24 h, read-out: EC50 (concentration of CV at half of maximum immobilization of C. elegans)): 3.7 µM | Emax at 10 µM ([4]; Caenorhabditis elegans, read-out: maximum efficacy (nematodes affected)): ~50% | effect on nematode motility vs untreated population ([4]; doses lower than 1 μM): no significant effect on nematode motility
